Target: T1, human PAD4 (Homo sapiens, UniProt Q9UM07)
T1 construct: human PAD4 (NM_012387), A2P663, was PCR amplified; His-SUMO (N, cleaved yes); made in house; host or cells: E. coli BL21(DE3)
Test: In vitro PAD4 BAEE biochemical assay
Conditions: human PAD4, BAEE substrate; 5 nM PAD4, 2 mM calcium chloride, 3 mM BAEE; geometric mean of multiple experiments
Method in brief: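 Ammonia release from BAEE deimination monitored by o-phthalaldehyde amine coupling (1 h, 25 °C) after EDTA stop. Final conditions: 5 nM tag-free recombinant human PAD4 (E. coli), 2 mM CaCl2, 3 mM BAEE, pH 7.6 MOPS with DTT; 30 min compound preincubation, then 2 h reaction at 25 °C.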

T1 sequence (Q9UM07 2-663): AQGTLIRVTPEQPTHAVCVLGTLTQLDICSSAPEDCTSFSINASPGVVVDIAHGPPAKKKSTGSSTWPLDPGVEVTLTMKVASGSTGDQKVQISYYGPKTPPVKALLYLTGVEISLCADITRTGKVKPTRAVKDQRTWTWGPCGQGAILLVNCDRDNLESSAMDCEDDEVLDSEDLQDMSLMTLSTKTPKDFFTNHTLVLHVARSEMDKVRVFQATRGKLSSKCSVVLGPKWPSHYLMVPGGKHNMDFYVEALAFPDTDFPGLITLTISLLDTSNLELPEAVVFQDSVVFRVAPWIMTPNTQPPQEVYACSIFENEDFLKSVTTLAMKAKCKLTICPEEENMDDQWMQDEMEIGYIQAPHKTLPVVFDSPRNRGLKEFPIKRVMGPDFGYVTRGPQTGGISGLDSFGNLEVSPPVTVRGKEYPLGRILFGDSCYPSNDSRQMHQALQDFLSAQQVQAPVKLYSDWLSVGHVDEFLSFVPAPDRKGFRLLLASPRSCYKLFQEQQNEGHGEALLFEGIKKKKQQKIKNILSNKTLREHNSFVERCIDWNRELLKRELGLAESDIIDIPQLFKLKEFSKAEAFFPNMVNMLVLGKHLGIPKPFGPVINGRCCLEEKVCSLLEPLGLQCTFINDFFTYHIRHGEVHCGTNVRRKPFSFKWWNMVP

Molecule | IC50 [nM]
COc1cc(C(=O)N2[C@H]3CC[C@@H]2[C@H](N)C3)cc2nc(-c3cc4ccc(N5CCNCCS5(=O)=O)nc4n3CC3CC3)c(C)n12 [Example 450, [(1~{R},2~{R},4~{S})-2-amino-7-azabicyclo [2.2.1]heptan-7-yl]-[2-[1-(cyclopropylmethyl)-6-(1,1-dioxo-1,2,5-thiadiazepan-2-yl)pyrrolo[2,3-b]pyridin-2-yl]-5-methoxy-3-methylimidazo[1,2-a]pyridin-7-yl]methanone] | 21.6
COc1cc(C(=O)N2[C@H]3CC[C@@H]2[C@H](N)C3)cc2nc(-c3cc4ccc(N[C@@H](C)C(F)(F)F)nc4n3CC3CC3)c(C)n12 [Example 448, [(1~{R},2~{R},4~{S})-2-amino-7-azabicyclo [2.2.1]heptan-7-yl]-[2-[1-(cyclopropylmethyl)-6-[[(2~{S})-1,1,1-trifluoropropan-2-yl]amino]pyrrolo[2,3-b]pyridin-2-yl]-5-methoxy-3-methylimidazo[1,2-a]pyridin-7-yl]methanone] | 6710
CS(=O)(=O)N(c1ccc2cc(-c3nc4cc(C(=O)N5C[C@H]6CC[C@@H]5[C@@H]6N)ccn4c3C3CC3)n(CC3CC3)c2n1)C(F)F [Example 396, N-[2-[7-[(1R,4R,7R)-7-amino-2-azabicyclo [2.2.1]heptane-2-carbonyl]-3-cyclopropyl-imidazo[1,2-a]pyridin-2-yl]-1-(cyclopropylmethyl)pyrrolo [2,3-b]pyridin-6-yl]-N-(difluoromethyl) methanesulfonamide] | 194
CC(C)c1c(-c2cc3ccc(N(C(F)F)S(C)(=O)=O)nc3n2CC2CC2)nc2cc(C(=O)N3[C@@H]4CC[C@@H](N)[C@H]3CC4)ccn12 [Example 434] | 3410
~{N}-[(1~{R})-1-[2-[7- [(1~{R},2~{R},4~{S})-2- amino-7- azabicyclo[2.2.1]heptane-7- carbonyl]- 5-methoxy-3-methylimidazo [1,2-a]pyridin-2-yl]-1- (cyclopropylmethyl)pyrrolo [2,3-b]pyridin-6-yl]ethyl]- 3,3-dimethylcyclobutane-1- carboxamide [Example 71] | 63.4
COc1cc(C(=O)N2C[C@H](N)CC[C@@H]2C)cc2nc(-c3cc4ccc(N(C(F)F)S(C)(=O)=O)nc4n3CC3CC3)c(CC3CC3)n12 [Example 405, ~{N}-[2-[7-[(2~{S},5~{R})-5-amino-2-methylpiperidine-1-carbonyl]-3-(cyclopropylmethyl)-5-methoxyimidazo[1,2-a]pyridin-2-yl]-1-(cyclopropylmethyl)pyrrolo [2,3-b]pyridin-6-yl]-~{N}-(difluoromethyl) methanesulfonamide] | 589
COc1cc(C(=O)N2C[C@H](N)CC[C@@H]2C)cc2nc(-c3cc4ccc(C5CC5)nc4n3CC3CC3)c(C)n12 [Example 612, [(2~{S},5~{R})-5-amino-2-methylpiperidin-1-yl]-[2-[6-cyclopropyl-1-(cyclopropylmethyl)pyrrolo [2,3-b]pyridin-2-yl]-5-methoxy-3-methylimidazo[1,2-a]pyridin-7-yl]methanone] | 743
[(1~{R},2~{R},4~{S})-2- amino-7-azabicyclo [2.2.1]heptan-7-yl]-[2-[6- ethyl-1-[(1~{R},2~{R})-2- phenylcyclopropyl]methyl] pyrrolo[2,3-b] pyridin-2-yl]-5-methoxy-3- methylimidazo[1,2-a] pyridin-7-yl]methanone [Example 492] | 2090
CNC(=O)C1CC1c1c(-c2cc3ccc(N(C(F)F)S(C)(=O)=O)nc3n2CC2CC2)nc2cc(C(=O)N3CCC[C@@H](N)C3)ccn12 (stereo partly drawn) [Example 431, 2-[7-[(3~{R})-3-aminopiperidine-1-carbonyl]-2-[1-(cyclopropylmethyl)-6-[difluoromethyl (methylsulfonyl)amino]pyrrolo[2,3-b]pyridin-2-yl]imidazo[1,2-a]pyridin-3-yl]-~{N}-methylcyclopropane-1-carboxamide] | 2030
~{N}-[(1~{R})-1-[2-[7- [(1~{R},2~{R},4~{S})- 2-amino-7-azabicyclo [2.2.1]heptane- 7-carbonyl]-5-methoxy- 3-methylimidazo [1,2-a]pyridin-2-yl]-1- (cyclopropylmethyl) pyrrolo[2,3-b]pyridin- 6-ylethyl]-2,2- dimethylcyclopropane- 1-carboxamide [Example 70] | 63.2
COc1cc(C(=O)N2C[C@@H]3C[C@]3(N)C2)cc2nc(-c3cc4ccc([C@@H](C)NC(=O)C56CC(F)(C5)C6)nc4n3CC3CC3)c(C)n12 [Example 25, ~{N}-[(1~{R})-1-[2-[7-[(1~{R},5~{S})-1-amino-3-azabicyclo [3.1.0]hexane-3-carbonyl]-5-methoxy-3-methylimidazo [1,2-a]pyridin-2-yl]-1-(cyclopropylmethyl)pyrrolo[2,3-b]pyridin-6-yl]ethyl]-3-fluorobicyclo[1.1.1] pentane-1-carboxamide] | 4450

Further molecules by falling IC50, results first:

IC50 [nM] | Molecule
130 | COc1cc(C(=O)N2[C@H]3CC[C@@H]2[C@H](N)C3)cc2nc(-c3cc4ccc(N5CCN(c6ccccc6)CCS5(=O)=O)nc4n3CC3CC3)c(C)n12 [Example 444, [(1~{R},2~{R},4~{S})-2-amino-7-azabicyclo [2.2.1]heptan-7-yl]-[2-[1-(cyclopropylmethyl)-6-(1,1-dioxo-5-phenyl-1,2,5-thiadiazepan-2-yl)pyrrolo [2,3-b]pyridin-2-yl]-5-methoxy-3-methylimidazo [1,2-a]pyridin-7-yl] methanone]
106 | [(1~{R},2~{R},4~{S})-2- amino-7-azabicyclo [2.2.1]heptan-7-yl]-[2-[1- (cyclopropylmethyl)-6-(6- hydroxy-2-methylpyridin- 3-yl)pyrrolo[2,3-b] pyridin-2-yl]-5-methoxy-3- methylimidazo[1,2-a] pyridin-7-yl]methanone [Example 563]
99.9 | COc1cc(C(=O)N2[C@H]3CC[C@@H]2[C@H](N)C3)cc2nc(-c3cc4ccc(N5CCOc6ccccc6S5(=O)=O)nc4n3CC3CC3)c(C)n12 [Example 460, [(1~{R},2~{R},4~{S})-2-amino-7-azabicyclo [2.2.1]heptan-7-yl]-[2-[1-(cyclopropylmethyl)-6-(1,1-dioxo-3,4-dihydro-5,1$l^6,2-benzoxathiazepin-2-yl)pyrrolo[2,3-b]pyridin-2-yl]-5-methoxy-3-methylimidazo[1,2-a]pyridin-7-yl]methanone]
98.3 | COc1cc(C(=O)N2[C@H]3CC[C@@H]2[C@H](N)C3)cc2nc(-c3cc4ccc([C@@H](C)NC(=O)C(C)(C)OC)nc4n3CC3CC3)c(C)n12 [Example 172, ~{N}-[(1~{R})-1-[2-[7-[(1~{R},2~{R},4~{S})-2-amino-7-azabicyclo[2.2.1]heptane-7-carbonyl]-5-methoxy-3-methylimidazo [1,2-a]pyridin-2-yl]-1-(cyclopropylmethyl)pyrrolo [2,3-b]pyridin-6-yl]ethyl]-2-methoxy-2-methylpropanamide]
79 | COc1cc(C(=O)N2[C@H]3CC[C@@H]2[C@H](N)C3)cc2nc(-c3cc4ccc([C@@H](C)NC(=O)c5ccc(C#N)cc5)nc4n3CC3CC3)c(C)n12 [Example 123, ~{N}-[(1~{R})-1-[2-[7-[(1~{R},2~{R},4~{S})-2-amino-7-azabicyclo[2.2.1]heptane-7-carbonyl]-5-methoxy-3-methylimidazo [1,2-a]pyridin-2-yl]-1-(cyclopropylmethyl)pyrrolo [2,3-b]pyridin-6-yl]ethyl]-4-cyanobenzamide]
72 | COc1cc(C(=O)N2[C@H]3CC[C@@H]2[C@H](N)C3)cc2nc(-c3cc4ccc([C@@H](C)Nc5ncccn5)nc4n3CC3CC3)c(C)n12 [Example 265, ((1R,2R,4S)-2-amino-7-azabicyclo[2.2.1]heptan-7-yl)(2-(1-(cyclopropylmethyl)-6-((R)-1-(pyrimidin-2-ylamino)ethyl)-1H-pyrrolo[2,3-b]pyridin-2-yl)-5-methoxy-3-methylimidazo[1,2-a]pyridin-7-yl)methanone]
64.2 | COc1cc(C(=O)N2[C@H]3CC[C@@H]2[C@H](N)C3)cc2nc(-c3cc4ccc([C@@H](C)NC(=O)NC5CCOC5)nc4n3CC3CC3)c(C)n12 (stereo partly drawn) [Example 231, 1-[(1~{R})-1-[2-[7-[(1~{R},2~{R},4~{S})-2-amino-7-azabicyclo[2.2.1]heptane-7-carbonyl]-5-methoxy-3-methylimidazo [1,2-a]pyridin-2-yl]-1-(cyclopropylmethyl)pyrrolo [2,3-b]pyridin-6-yl]ethyl]-3-(oxolan-3-yl)urea]
52.3 | COc1cc(C(=O)N2[C@H]3CC[C@@H]2[C@H](N)C3)cc2nc(-c3cc4ccc(N5CCOCS5(=O)=O)nc4n3CC3CC3)c(C)n12 [Example 458, [(1~{R},2~{R},4~{S})-2-amino-7-azabicyclo [2.2.1]heptan-7-yl]-[2-[1-(cyclopropylmethyl)-6-(3,3-dioxo-1,3,4-oxathiazinan-4-yl)pyrrolo [2,3-b]pyridin-2-yl]-5-methoxy-3-methylimidazo[1,2-a]pyridin-7-yl]methanone]
46.8 | COc1cc(C(=O)N2[C@H]3CC[C@@H]2[C@H](N)C3)cc2nc(-c3cc4ccc(N(C)S(C)(=O)=O)nc4n3CC3CC3)c(C)n12 [Example 476, ~{N}-[2-[7-[(1~{R}, 2~{R},4~{S})-2-amino-7-azabicyclo[2.2.1]heptane-7-carbonyl]-5-methoxy-3-methylimidazo[1,2-a]pyridin-2-yl]-1-(cyclopropylmethyl)pyrrolo[2,3-b]pyridin-6-yl]-~{N}-methylmethanesulfonamide]
45.9 | COc1cc(C(=O)N2[C@H]3CC[C@@H]2[C@H](N)C3)cc2nc(-c3cc4ccc([C@@H](C)NC(=O)N[C@@H](C)c5cccnc5)nc4n3CC3CC3)c(C3CC3)n12 [Example 217, 1-[(1~{R})-1-[2-[7-[(1~{R},2~{R},4~{S})-2-amino-7-azabicyclo[2.2.1]heptane-7-carbonyl]-3-cyclopropyl-5-methoxyimidazo [1,2-a]pyridin-2-yl]-1-(cyclopropylmethyl)pyrrolo [2,3-b]pyridin-6-yl]ethyl]-3-[(1~{S})-1-pyridin-3-ylethyl]urea]
